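How tested: cells in 96-well plates exposed to compound for 48 hours at five concentrations. Abbreviation: GI50, concentration required for 50% inhibition of growth. TGI denotes the concentration required for complete inhibition of growth.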
What was measured:
Experiment in all cases: NCI-60 cell line screen, 48 h
A498 renal = system: A498 renal
SF-295 CNS = system: SF-295 CNS
BT-549 breast = system: BT-549 breast
ACHN renal = system: ACHN renal
SF-539 CNS = system: SF-539 CNS
EKVX NSCLC = system: EKVX NSCLC
A549 NSCLC = system: A549 NSCLC
SR leukemia = system: SR leukemia
DU-145 prostate = system: DU-145 prostate
U251 CNS = system: U251 CNS
HOP-62 NSCLC = system: HOP-62 NSCLC
MDA-MB-231 breast = system: MDA-MB-231 breast
CCRF-CEM leukemia = system: CCRF-CEM leukemia
OVCAR-4 ovarian = system: OVCAR-4 ovarian
HCT-15 colon = system: HCT-15 colon
RXF 393 renal = system: RXF 393 renal
KM12 colon = system: KM12 colon
SW-620 colon = system: SW-620 colon
SK-MEL-28 melanoma = system: SK-MEL-28 melanoma
OVCAR-8 ovarian = system: OVCAR-8 ovarian
UO-31 renal = system: UO-31 renal
HT29 colon = system: HT29 colon
HS 578T breast = system: HS 578T breast
PC-3 prostate = system: PC-3 prostate
SNB-75 CNS = system: SNB-75 CNS
COLO 205 colon = system: COLO 205 colon
NCI-H226 lung = system: NCI-H226 lung
NCI-H522 lung = system: NCI-H522 lung
SF-268 CNS = system: SF-268 CNS
RPMI-8226 leukemia = system: RPMI-8226 leukemia
MOLT-4 leukemia = system: MOLT-4 leukemia
HOP-92 NSCLC = system: HOP-92 NSCLC
TK-10 renal = system: TK-10 renal
MALME-3M melanoma = system: MALME-3M melanoma
OVCAR-5 ovarian = system: OVCAR-5 ovarian
MDA-MB-435 = system: MDA-MB-435
SNB-19 CNS = system: SNB-19 CNS
IGROV1 ovarian = system: IGROV1 ovarian
CAKI-1 renal = system: CAKI-1 renal
MCF7 breast = system: MCF7 breast
786-0 renal = system: 786-0 renal
OVCAR-3 ovarian = system: OVCAR-3 ovarian
T-47D breast = system: T-47D breast
NCI/ADR-RES ovarian = system: NCI/ADR-RES ovarian
K-562 leukemia = system: K-562 leukemia
SK-MEL-2 melanoma = system: SK-MEL-2 melanoma
M14 melanoma = system: M14 melanoma
NCI-H460 lung = system: NCI-H460 lung
UACC-62 melanoma = system: UACC-62 melanoma
SK-OV-3 ovarian = system: SK-OV-3 ovarian
SK-MEL-5 melanoma = system: SK-MEL-5 melanoma
NCI-H23 lung = system: NCI-H23 lung
SN12C renal = system: SN12C renal
HCC-2998 colon = system: HCC-2998 colon
UACC-257 melanoma = system: UACC-257 melanoma
HCT-116 colon = system: HCT-116 colon

## C#C[C@]1(O)CC[C@H]2[C@@H]3CC=C4c5sc(Nc6ccc(C)cn6)nc5CC[C@]4(C)[C@H]3CC[C@@]21C
A498 renal
  GI50: 376 nM
  TGI: 1120 nM
SF-295 CNS
  GI50: 184 nM
  TGI: 411 nM
BT-549 breast
  GI50: 566 nM
  TGI: 3.05 µM
ACHN renal
  GI50: 907 nM
  TGI: 11.2 µM
SF-539 CNS
  GI50: 203 nM
  TGI: 646 nM
EKVX NSCLC
  GI50: 994 nM
  TGI: 9.92 µM
A549 NSCLC
  GI50: 1350 nM
  TGI: 12.3 µM
SR leukemia
  GI50: 343 nM
DU-145 prostate
  GI50: 1840 nM
  TGI: 11.5 µM
U251 CNS
  GI50: 537 nM
  TGI: 5.77 µM
HOP-62 NSCLC
  GI50: 1070 nM
  TGI: 4.34 µM
MDA-MB-231 breast
  GI50: 1280 nM
  TGI: 4 µM
CCRF-CEM leukemia
  GI50: 431 nM
  TGI: 3.3 µM
OVCAR-4 ovarian
  GI50: 1900 nM
  TGI: 13.8 µM
HCT-15 colon
  GI50: 1000 nM
  TGI: 2740 nM
RXF 393 renal
  GI50: 53.6 nM
  TGI: 261 nM
KM12 colon
  GI50: 1050 nM
  TGI: 4.51 µM
SW-620 colon
  GI50: 657 nM
  TGI: 2230 nM
SK-MEL-28 melanoma
  GI50: 254 nM
  TGI: 727 nM
OVCAR-8 ovarian
  GI50: 2020 nM
  TGI: > 27.1 µM
UO-31 renal
  GI50: 378 nM
  TGI: 1620 nM
HT29 colon
  GI50: 1200 nM
  TGI: 3.26 µM
HS 578T breast
  GI50: 265 nM
  TGI: 986 nM
PC-3 prostate
  GI50: 379 nM
  TGI: 5.08 µM
SNB-75 CNS
  GI50: 332 nM
  TGI: 3.45 µM
COLO 205 colon
  GI50: 1490 nM
  TGI: 3.68 µM
NCI-H226 lung
  GI50: 2160 nM
  TGI: 8.32 µM
NCI-H522 lung
  GI50: 2010 nM
  TGI: 4.58 µM
SF-268 CNS
  GI50: 1070 nM
  TGI: 10.6 µM
RPMI-8226 leukemia
  GI50: 199 nM
  TGI: 609 nM
MOLT-4 leukemia
  GI50: 300 nM
HOP-92 NSCLC
  GI50: 877 nM
  TGI: 4.13 µM
TK-10 renal
  GI50: 2550 nM
  TGI: 9.9 µM
MALME-3M melanoma
  GI50: 559 nM
  TGI: 2420 nM
OVCAR-5 ovarian
  GI50: 2130 nM
  TGI: 6.76 µM
MDA-MB-435
  GI50: 715 nM
  TGI: 3.67 µM
SNB-19 CNS
  GI50: 1220 nM
  TGI: 4.83 µM
IGROV1 ovarian
  GI50: 1750 nM
  TGI: 12.9 µM
CAKI-1 renal
  GI50: 597 nM
  TGI: 4 µM
MCF7 breast
  GI50: 402 nM
  TGI: 1920 nM
786-0 renal
  GI50: 198 nM
  TGI: 610 nM
OVCAR-3 ovarian
  GI50: 1850 nM
  TGI: 6.15 µM
T-47D breast
  GI50: 1970 nM
  TGI: 12.1 µM
NCI/ADR-RES ovarian
  GI50: 1860 nM
  TGI: 6.94 µM
K-562 leukemia
  GI50: 408 nM
  TGI: > 100 µM
SK-MEL-2 melanoma
  GI50: 741 nM
  TGI: 3.23 µM
M14 melanoma
  GI50: 536 nM
  TGI: 2550 nM
NCI-H460 lung
  GI50: 652 nM
  TGI: 5.29 µM
UACC-62 melanoma
  GI50: 363 nM
  TGI: 1430 nM
SK-OV-3 ovarian
  GI50: 717 nM
  TGI: 3.3 µM
SK-MEL-5 melanoma
  GI50: 1270 nM
  TGI: 2580 nM
NCI-H23 lung
  GI50: 1240 nM
  TGI: 5.16 µM
SN12C renal
  GI50: 2520 nM
  TGI: 10.5 µM
HCC-2998 colon
  GI50: 2230 nM
  TGI: 7.26 µM
UACC-257 melanoma
  GI50: 947 nM
  TGI: 3.35 µM
HCT-116 colon
  GI50: 504 nM
  TGI: 2170 nM

Source: PubChem BioAssay (NCI)
